According to US20150104868A1, “Methods of Maintaining and Improving Biological Cell Function and Activity” (GARGILL INCORPORATED, priority 2012, published 2015):

Test system: CRL 1730 HUVECs
Test: Microarray transcriptomics of HUVEC (HGERT/HG, HG/NG)
Assay type: cell-based, human
[1] = Atherosclerosis, ATP binding and metabolism
[2] = Atherosclerosis, Cysteine/gluathione
[3] = Atherosclerosis, Cytokine activity
[4] = Atherosclerosis, Endothelial cell related
[5] = Atherosclerosis, Heat shock protein
[6] = Atherosclerosis, NF-kappaB transcription
[7] = Atherosclerosis, Nitric oxide synthase activity
[8] = Atherosclerosis, Peptidase activity
[9] = Atherosclerosis, Plasminogen activators
[10] = Atherosclerosis, Reactive oxygen species

OC[C@@H](O)[C@@H](O)CO [ERT, meso-1,2,3,4-tetrahydroxybutane]
HGERT/HG ABCB10 (ATP-binding cassette, sub-family B (MDR/TAP), member 10) [1]: 0.98 Ω | HGERT/HG ACTL6A (Actin-like 6A) [1]: 0.98 Ω | HGERT/HG ACTR5 (ARP5 actin-related protein 5 homolog (yeast)) [1]: Ψ 1.01 | HGERT/HG ATAD1 (ATPase family, AAA domain containing 1) [1]: 0.99 Ω | HGERT/HG ATAD3B (ATPase family, AAA domain containing 3B) [1]: Ψ 1.01 | HGERT/HG ATP2C1 (ATPase, Ca++ transporting, type 2C, member 1) [1]: 0.99 Ω | HGERT/HG ATP5E (ATP synthase, H+ transporting, mitochondrial F1 complex, epsilon subunit) [1]: 0.98 Ω | HGERT/HG ATP5O (ATP synthase, H+ transporting, mitochondrial Fl complex, O subunit) [1]: 1.00 Ω | HGERT/HG ATP13A1 (ATPase type 13A1) [1]: Ψ 1.02 | HGERT/HG C3orf26 (Chromosome 3 open reading frame 26) [1]: 0.99 Ω | HGERT/HG CARS (Cysteinyl-tRNA synthetase) [1]: 1.00 Ω | HGERT/HG CSNK1G1 (Casein kinase 1, gamma 1) [1]: Ψ 1.02 | HGERT/HG DCAKD (Dephospho-CoA kinase domain containing) [1]: Ψ 1.03 | HGERT/HG DDX54 (DEAD (Asp-Glu-Ala-Asp) box, polypeptide 54) [1]: 0.99 Ω | HGERT/HG FASTKD1 (FAST kinase domains 1) [1]: 0.99 Ω | HGERT/HG FASTKD3 (FAST kinase domains 3) [1]: 0.99 Ω | HGERT/HG HLTF (Helicase-like transcription factor) [1]: 0.99 Ω | HGERT/HG HSPE1 (Heat shock 10kDa protein 1 (chaperonin 10)) [1]: 0.99 Ω | HGERT/HG KIF1B (Kinesin family member 1B) [1]: Ψ 1.01 | HGERT/HG LIMK1 (LIM domain kinase 1) [1]: Ψ 1.01 | HGERT/HG LVN (V-yes-1 Yamaguchi sarcoma viral related oncogene homolog) [1]: Ψ 1.02 | HGERT/HG MAP4K3 (Mitogen-activated protein kinase kinase kinase kinase 3) [1]: 0.98 Ω | HGERT/HG MARK2 (MAP/microtubule affinity-regulating kinase 2) [1]: Ψ 1.03 | HGERT/HG RP2 (Retinitis pigmentosa 2 (X-linked recessive)) [1]: 0.99 Ω | HGERT/HG RPS6KA2 (Ribosomal protein S6 kinase, 90kDa, polypeptide 2) [1]: Ψ 1.01 | HGERT/HG SLK (STE20-like kinase) [1]: 0.99 Ω | HGERT/HG STK39 (Serine threonine kinase 39) [1]: 0.98 Ω | HGERT/HG SUCLA2 (Succinate-CoA ligase, ADP-forming, beta subunit) [1]: 0.99 Ω | HGERT/HG TRIT1 (TRNA isopentenyltransferase 1) [1]: 0.98 Ω | HGERT/HG VPS4B (Vacuolar protein sorting 4 homolog B (S. cerevisiae)) [1]: 0.99 Ω | HGERT/HG YME1L1 (YME1-like 1 (S. cerevisiae)) [1]: 1.00 Ω | HGERT/HG CORO1A (Coronin, actin binding protein, 1A) (Atherosclerosis, Actin binding): 0.94 Ω | HGERT/HG PLEC1 (Plectin) (Atherosclerosis, Actin binding): Ψ 1.03 | HGERT/HG AHCYL1 (Adenosylhomocysteinase-like 1) [2]: Ψ 1.01 | HGERT/HG ATIC (5-aminoimidazole-4-carboxamide ribonucleotide formyltransferase/IMP cyclohydrolase) [2]: 0.99 Ω | HGERT/HG ESD (Esterase D) [2]: 0.99 Ω | HGERT/HG BMP6 (Bone morphogenetic protein 6) [3]: Ψ 1.01 | HGERT/HG IL13RA1 (Interleukin 13 receptor, alpha 1) [3]: Ψ 1.02 | HGERT/HG IL17D (Interleukin 17D) [3]: 0.98 Ω | HGERT/HG ENG (Endoglin) [4]: Ψ 1.01 | HGERT/HG FOXC1 (Forkhead box C1) [4]: Ψ 1.01 | HGERT/HG GPR124 (G protein-coupled receptor 124) [4]: Ψ 1.02 | HGERT/HG HIG2 (Chromosome 7 open reading frame 68) [4]: Ψ 1.01 | HGERT/HG JUP (Junction plakoglobin) [4]: Ψ 1.01 | HGERT/HG KRIT1 (KRIT1, ankyrin repeat containing) [4]: 0.99 Ω | HGERT/HG NOTCH1 (Notch 1) [4]: Ψ 1.02 | HGERT/HG JUP (Junction plakoglobin) (Atherosclerosis, Endothelial cell-cell adhesion): Ψ 1.01 | HGERT/HG DNAJC8 (DnaJ (Hsp40) homolog, subfamily C, member 8) [5]: 0.99 Ω | HGERT/HG DNAJC11 (DnaJ (Hsp40) homolog, subfamily C, member 11) [5]: Ψ 1.01 | HGERT/HG COMMD7 (COMM domain containing 7) [6]: 0.99 Ω | HGERT/HG NDFIP2 (Nedd4 family interacting protein 2) [6]: 0.99 Ω | HGERT/HG PTPLAD1 (Protein tyrosine phosphatase-like A domain containing 1) [6]: Ψ 1.01 | HGERT/HG TP53BP2 (Tumor protein p53 binding protein, 2) [6]: Ψ 1.01 | HGERT/HG ACVR2A (Activin A receptor, type IIA) [7]: 0.99 Ω | HGERT/HG ENG (Endoglin) [7]: Ψ 1.01 | HGERT/HG HIG2 (Chromosome 7 open reading frame 68) [7]: Ψ 1.01 | HGERT/HG OSTM1 (Osteopetrosis associated transmembrane protein 1) (Atherosclerosis, Osteoclast differentiation): 0.99 Ω | HGERT/HG ATXN3 (Ataxin 3) [8]: 0.99 Ω | HGERT/HG OTUD5 (OTU domain containing 5) [8]: Ψ 1.01 | HGERT/HG SENP3 (SUMO1/sentrin/SMT3 specific peptidase 3) [8]: Ψ 1.01 | HGERT/HG WFDC12 (WAP four-disulfide core domain 12) [8]: 0.96 Ω | HGERT/HG PLSCR4 (Phospholipid scramblase 4) (Atherosclerosis, Phospholipid scramblase): 0.99 Ω | HGERT/HG BRD2 (Bromodomain containing 2) [9]: Ψ 1.02 | HGERT/HG RHOJ (Ras homolog gene family, member J) [9]: Ψ 1.02 | HGERT/HG COX8A (Cytochrome c oxidase subunit VIIIA (ubiquitous)) [10]: 0.99 Ω | HGERT/HG JUP (Junction plakoglobin) [10]: Ψ 1.01 | HGERT/HG MPHOSPH6 (M-phase phosphoprotein 6) [10]: 0.99 Ω | HGERT/HG SDHD (Succinate dehydrogenase complex, subunit D, integral membrane protein) [10]: 0.98 Ω | HGERT/HG SMOX (Spermine oxidase) [10]: 0.99 Ω | HGERT/HG SOS1 (Son of sevenless homolog 1 (Drosophila)) [10]: Ψ 1.06 | HGERT/HG TCF12 (Transcription factor 12) [10]: 0.99 Ω | HGERT/HG TGM2 (Transglutaminase 2 (C polypeptide, protein-glutamine-gamma-glutamyltransferase)) [10]: Ψ 1.01 | HGERT/HG PGRMC2 (Progesterone receptor membrane component 2) (Atherosclerosis, Steroid hormone receptor activity): 0.98 Ω | HGERT/HG ABCB10 (ATP-binding cassette, sub-family B (MDR/TAP), member 10) (Breast cancer, ATP metabolism): 0.98 Ω | HGERT/HG ACTL6A (Actin like 6A) (Breast cancer, ATP metabolism): 0.98 Ω | HGERT/HG ACTR5 (ARP5 actin-related protein 5 homolog (yeast)) (Breast cancer, ATP metabolism): Ψ 1.01 | HGERT/HG ATAD1 (ATPase family, AAA domain containing 1) (Breast cancer, ATP metabolism): 0.99 Ω | HGERT/HG ATAD38 (ATPase family, AAA domain containing 38) (Breast cancer, ATP metabolism): Ψ 1.01 | HGERT/HG ATP2C1 (ATPase, Ca++ transporting, type 2C, member 1) (Breast cancer, ATP metabolism): 0.99 Ω | HGERT/HG ATP5E (ATP synthase, H+ transporting, mitochondrial F1 complex, epsilon subunit) (Breast cancer, ATP metabolism): 0.99 Ω | HGERT/HG ATP5O (ATP synthase, H+ transporting, mitochondrial F1 complex, O subunite) (Breast cancer, ATP metabolism): Ψ 1.00 | HGERT/HG ATP13A1 (ATPase type 13A1) (Breast cancer, ATP metabolism): Ψ 1.02 | HGERT/HG C3orf26 (Chromosome 3 open reading frame 26) (Breast cancer, ATP metabolism): 0.99 Ω | HGERT/HG CARS (Cysteinyl-tRNA synthetase) (Breast cancer, ATP metabolism): 1.00 Ω | HGERT/HG CSNK1G1 (Casein kinase 1, gamma 1) (Breast cancer, ATP metabolism): Ψ 1.02 | HGERT/HG DCAKO (Dephospho-CoA kinase domain containing) (Breast cancer, ATP metabolism): Ψ 1.03 | HGERT/HG DDX54 (DEAD (Asp-Glu-Ala-Asp) box, polypeptide 54) (Breast cancer, ATP metabolism): 0.99 Ω | HGERT/HG FASTDK1 (FAST kinase domains 1) (Breast cancer, ATP metabolism): 0.99 Ω | HGERT/HG FASTKD3 (FAST kinase domains 1) (Breast cancer, ATP metabolism): 0.99 Ω | HGERT/HG HLTF (Helicase-like transcription factor) (Breast cancer, ATP metabolism): 0.99 Ω | HGERT/HG HSPE1 (Heat shock 10kDa protein 1 (chaperonin 10)) (Breast cancer, ATP metabolism): 0.99 Ω | HGERT/HG KF1B (Kinesin family member 1B) (Breast cancer, ATP metabolism): Ψ 1.01 | HGERT/HG LIMK1 (LIM domain kinase 1) (Breast cancer, ATP metabolism): Ψ 1.01 | HGERT/HG LYN (V-yes-1 Yamaguchi sarcoma viral related oncogene homolog) (Breast cancer, ATP metabolism): Ψ 1.02 | HGERT/HG MAP4K3 (Mitogen-activated protein kinase kinase kinase kinase 3) (Breast cancer, ATP metabolism): 0.98 Ω | HGERT/HG RP2 (Retinitis pigmentosa 2 (X-linked recessive)) (Breast cancer, ATP metabolism): 0.98 Ω | HGERT/HG SLK (STE20-like kinase) (Breast cancer, ATP metabolism): 0.99 Ω | HGERT/HG STK39 (Serine threonine kinase 39) (Breast cancer, ATP metabolism): 0.98 Ω | HGERT/HG SUCLA2 (Succinate-CoA ligase, ADP-forming, beta subunit) (Breast cancer, ATP metabolism): 0.99 Ω
